Here are results for 22 compounds from patent publication US20210230159A1, “4H-PYRIDO[1,2-A]PYRIMIDIN-4-ONE COMPOUNDS” (Prana Biotechnology Limited, priority 2014, published 2021).

What is called IC50 is the concentration at which inhibition is half-maximal.

The nature of the experiment: Hydrogen peroxide (H2O2) inhibition assay (fluorescence, DCF/horseradish peroxidase). In kind it is biochemical. The note with it: for IC50: HCl salt tested where HCl salt MW is given; for Fe-ASC % (cf. 0.4 uM Fe/Asc; cf. CQ, CQ = 100%): ascorbic acid as reducing substrate, test compound 0.4 μM, lower values = greater inhibition of H2O2. As for the experimental part:
Assay 1. Hydrogen Peroxide Assay
H2O2 is a strong oxidizer and a highly reactive oxygen species that is known to be toxic to surrounding proteins and organelles, inhibiting their function. […] […] H2O2 generated by the system is assessed by measuring the specific fluorescence profile at the excitation and emission wavelengths of 485 and 530 nm respectively, in the presence of test compound. Test compounds were dissolved in DMSO and tested at concentrations of 0.4 μM. Test compounds are ranked according to their capacity to inhibit H2O2 generated by the system where lower values reflect greater ability to inhibit H2O2 production.

As for `CCCc1cnc2c(O)c(Cl)ccn2c1=O` [Compound 1235], the IC50 is 290 nM and the “Fe-ASC % (cf. 0.4 uM Fe/Asc; cf. CQ, CQ = 100%)” value (from here on “Fe-ASC %”) was 86% ASC.

In the case of `CCCCCCCCNC(=O)c1cnc2c(O)cccn2c1=O` [Compound 1394], the IC50 worked out at 720 nM and the “Fe-ASC %” value is recorded as 96% ASC.

Turning to `COCc1cnc2c(O)cccn2c1=O` [Compound 1398, 9-Hydroxy-3-(methoxymethyl)-4H-pyrido[1,2-a]pyrimidin-4-one], the concentration for half-maximal inhibition (IC50) amounted to 1290 nM and the “Fe-ASC %” value is 39% ASC.

For `CCNCc1cc(=O)n2cccc(O)c2n1` [Compound 1400], the IC50 was found to be 330 nM and the “Fe-ASC %” value is reported as 32% ASC.

As to `CN(C)Cc1cc(=O)n2cccc(O)c2n1` [Compound 1401], the half-maximal inhibitory concentration (IC50) turned out to be 420 nM and the “Fe-ASC %” value was 55% ASC.

With `CCN1CCN(Cc2cc(=O)n3cccc(O)c3n2)CC1` [Compound 1402], the IC50 was 1680 nM and the “Fe-ASC %” value is reported as 36% ASC.

In the case of `O=c1cc(CN2CCCCC2)nc2c(O)cccn12` [Compound 1403], the IC50 amounted to 1700 nM and the “Fe-ASC %” value stood at 49% ASC.

On to `CCCCNCc1cc(=O)n2cccc(O)c2n1` [Compound 1405], for which the concentration for half-maximal inhibition (IC50) came out at 290 nM and the “Fe-ASC %” value is recorded as 35% ASC.

Regarding `O=c1cc(CNCc2ccc(Cl)cc2)nc2c(O)cccn12` [Compound 1406], the IC50 worked out at 1140 nM.

Take `CC(C)CNCc1cc(=O)n2cccc(O)c2n1` [Compound 1408, 9-Hydroxy-2-((isobutylamino)methyl)-4H-pyrido[1,2-a]pyrimidin-4-one hydrogen chloride]: the IC50 is 430 nM.

Turning to `O=c1cc(CNCc2ccc(F)cc2)nc2c(O)cccn12` [Compound 1409], the IC50 was 140 nM.

On to `CCCCCCCCNCc1cc(=O)n2cccc(O)c2n1` [Compound 1410], for which the IC50 stood at 430 nM and the “Fe-ASC %” value was determined as 62% ASC.

`O=c1cc(CNCC2CC2)nc2c(O)cccn12` [Compound 1411]: the half-inhibitory concentration (IC50) is 330 nM and the “Fe-ASC %” value is given as 36% ASC.

Regarding `O=c1cc(CNCCCN2CCOCC2)nc2c(O)cccn12` [Compound 1412], the IC50 is 130 nM and the “Fe-ASC %” value was found to be 29% ASC.

For the compound `CCCCCNCc1cc(=O)n2cccc(O)c2n1` [Compound 1413], the IC50 is 190 nM and the “Fe-ASC %” value was 42% ASC.

Take `O=c1cc(CNCc2ccccn2)nc2c(O)cccn12` [Compound 1414]: the half-maximal inhibitory concentration (IC50) was under 100 nM and the “Fe-ASC %” value amounted to 29% ASC.

For `O=c1cc(CNCCc2ccccn2)nc2c(O)cccn12` [Compound 1415], the IC50 is under 100 nM and the “Fe-ASC %” value is recorded as 34% ASC.

Turning to `O=c1cc(CNCCN2CCCC2)nc2c(O)cccn12` [Compound 1417], the 50% inhibitory concentration (IC50) stood at 130 nM and the “Fe-ASC %” value was 29% ASC.

Regarding `O=c1cc(CNCCN2CCOCC2)nc2c(O)cccn12` [Compound 1418], the IC50 was determined as 240 nM and the “Fe-ASC %” value was determined as 30% ASC.

As to `CCCCCNC(=O)c1cnc2c(O)cccn2c1=O` [Compound 1422], the half-inhibitory concentration (IC50) was 680 nM and the “Fe-ASC %” value was found to be 63% ASC.

Take `CCCNC(=O)c1cnc2c(O)cccn2c1=O` [Compound 1423]: the half-maximal inhibitory concentration (IC50) was 380 nM and the “Fe-ASC %” value is listed as 45% ASC.

With `CN(C)Cc1cnc2c(O)cccn2c1=O` [Compound 1424, 3-((Dimethylamino)methyl)-9-hydroxy-4H-pyrido[1,2-a]pyrimidin-4-one hydrogen chloride], the half-inhibitory concentration (IC50) is 800 nM and the “Fe-ASC %” value was 48% ASC.
